From patent US11059818B2, “Triazolopyridine inhibitors of myeloperoxidase” (BRISTOL-MYERS SQUIBB COMPANY, priority 2016, dated 2021)

What was measured:
myeloperoxidase [1] = target: T1, myeloperoxidase (Homo sapiens (Human), UniProt P05164); assay: MPO Peroxidation Assay (Amplex Red Assay); assay type: biochemical; conditions: potency range class
Procedure: MPO Peroxidation Assay (Amplex Red Assay)
MPO peroxidation activity was measured in 100 mM KPi (pH 7.4) by utilizing the non-fluorescent reagent Amplex Red (Invitrogen Cat. #A12222) which can be oxidized to the highly fluorescent resorufin. Amplex Red is oxidized by the peroxidase action of MPO to resorufin. Reactions were carried out in 50 μL total volume by adding a 25 μL mixture of 200 pM myeloperoxidase and 40 nM H2O2(Sigma #349887) to 100 nL inhibitor in 100% DMSO in a 384 well Perkin Elmer Optiplate. Enzyme and compound were preincubated for ten minutes at rt.
After the ten minute preincubation, 25 μL of an Amplex Red mixture containing 200 μM Amplex Red and 10 mM H2O2 was added to the plate. Kinetic determinations were carried out immediately on a Perkin Elmer Envision (15 minute kinetic read, Ex: 535 nm, Em: 590 nm).
IC50 values were calculated by determining the slope of the linear portion of the kinetic trace (180-540 secs), and using that calculated slope to determine % inhibition occurring at each concentration of inhibitor using the following equation:
(§1) [formula] where A=minimal Y value (activity level of inhibited sample), B=maximal Y value (activity level of uninhibited sample), C=Log IC50, D=Hill Slope, x=concentration of inhibitor. MPO Chlorination Assay (APF Assay)

myeloperoxidase [2] = target: T1, myeloperoxidase; assay: MPO Chlorination Assay (APF Assay); assay type: biochemical; conditions: potency range class
Procedure: as §1
MPO chlorination activity was measured in 100 mM KPi (pH 7.4) by utilizing the non-fluorescent reagent Aminophenyl fluorescein (APF, Invitrogen Cat. #A36003). APF is cleaved by (—OCl) to yield the fluorescent compound fluorescein. Reactions were carried out in 50 μL total volume by adding a 25 μL mixture of 200 pM myeloperoxidase and 120 mM NaCl to 100 nL inhibitor in 100% DMSO in a 384 well, non-binding surface clear bottom plate (Corning #3655). Enzyme, inhibitor, and chloride were preincubated for ten minutes at rt.
After the ten minute preincubation, 25 μL of an APF mixture containing […], 120 mM NaCl and 10 μM H2O2 was added to the plate using the internal dispensing system of a Hammatsu FDSS 6000. Kinetic determinations were carried out immediately on the FDSS 6000 (3 minute kinetic read, 1 read every second, ex: 485 nm, em: 535 nm). IC50 values for inhibitors were calculated by taking the slope of the linear portion of the kinetic measurement (20 seconds to ˜80-120 secs). […]
[formula] where A=minimal Y value (activity level of inhibited sample), B=maximal Y value (activity level of uninhibited sample), C=Log IC50, D=Hill Slope, x=concentration of inhibitor.

T1 sequence (P05164 49-745): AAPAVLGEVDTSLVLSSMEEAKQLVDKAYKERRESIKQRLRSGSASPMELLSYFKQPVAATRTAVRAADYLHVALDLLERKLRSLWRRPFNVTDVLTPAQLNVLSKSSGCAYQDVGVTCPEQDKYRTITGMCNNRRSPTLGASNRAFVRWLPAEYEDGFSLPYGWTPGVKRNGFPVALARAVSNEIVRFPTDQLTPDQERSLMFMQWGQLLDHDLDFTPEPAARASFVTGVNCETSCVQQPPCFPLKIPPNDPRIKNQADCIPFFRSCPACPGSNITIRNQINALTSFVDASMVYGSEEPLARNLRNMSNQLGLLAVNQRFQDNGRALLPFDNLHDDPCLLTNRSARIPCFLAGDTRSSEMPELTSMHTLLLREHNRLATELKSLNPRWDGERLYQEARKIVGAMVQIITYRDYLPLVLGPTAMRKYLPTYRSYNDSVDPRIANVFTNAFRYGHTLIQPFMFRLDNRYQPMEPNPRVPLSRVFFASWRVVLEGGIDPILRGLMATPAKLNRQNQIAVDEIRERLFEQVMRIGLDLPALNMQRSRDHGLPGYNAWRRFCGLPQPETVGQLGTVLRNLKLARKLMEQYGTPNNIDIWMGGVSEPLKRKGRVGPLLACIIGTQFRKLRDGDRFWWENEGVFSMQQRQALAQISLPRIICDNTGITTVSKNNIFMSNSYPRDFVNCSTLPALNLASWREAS

Row | Compound | IC50 (myeloperoxidase [1]) [nM] | IC50 (myeloperoxidase [2]) [nM]
1 | Nc1cc(C(CCC2CCOCC2)c2cnn(Cc3ccc4c(c3)CCNC4)c2)c2nn[nH]c2n1 (stereo not shown) [Example 10, 7-[3-(Oxan-4-yl)-1-[1-(1,2,3,4-tetrahydroisoquinolin-6-ylmethyl)-1H-pyrazol-4-yl]propyl]-3H-[1,2,3]triazolo[4,5-b]pyridin-5-amine] | 101 to 999 | 1000 to 10000
2 | Nc1cc(C(CCOc2ccccc2)c2cnn(Cc3ccc4c(c3)CCNC4)c2)c2nn[nH]c2n1 (stereo not shown) [Example 11, 7-{3-Phenoxy-1-[1-(1,2,3,4-tetrahydroisoquinolin-6-ylmethyl)-1H-pyrazol-4-yl]propyl}-3H-[1,2,3]triazolo[4,5-b]pyridin-5-amine] | 101 to 999 | 101 to 999
3 | Nc1cc(C(CCCc2ccccc2)c2cnn(Cc3cccc(C4CCNCC4)c3)c2)c2nn[nH]c2n1 (stereo not shown) [Example 13, 7-[4-Phenyl-1-(1-{[3-(piperidin-4-yl)phenyl]methyl}-1H-pyrazol-4-yl)butyl]-3H-[1,2,3]triazolo[4,5-b]pyridin-5-amine] | 101 to 999 | 1 to 100
4 | Nc1cc(C(CCCC2NCCc3ccccc32)c2cnn(Cc3ccccc3)c2)c2nn[nH]c2n1 (stereo not shown) [Example 14, 7-[1-(1-Benzyl-1H-pyrazol-4-yl)-4-(1,2,3,4-tetrahydroisoquinolin-1-yl)butyl]-3H-[1,2,3]triazolo[4,5-b]pyridin-5-amine] | 101 to 999 | 1 to 100
5 | Cn1cc(C(CCNCc2ccccc2)c2cc(N)nc3[nH]nnc23)cn1 (stereo not shown) [Example 15, 7-[3-(Benzylamino)-1-(1-methyl-1H-pyrazol-4-yl)propyl]-3H-[1,2,3]triazolo[4,5-b]pyridin-5-amine] | 101 to 999 | 1000 to 10000
6 | Nc1cc(C(CCNC2CCC(c3ccccc3)CC2)c2cnn(Cc3ccccc3)c2)c2nn[nH]c2n1 (stereo not shown) [Example 16, 7-[1-(1-Benzyl-1H-pyrazol-4-yl)-3-[(4-phenylcyclohexyl)amino]propyl]-3H-[1,2,3]triazolo[4,5-b]pyridin-5-amine] | 101 to 999 | 1 to 100
7 | Nc1cc(C(CCNC2CCc3ccccc32)c2cnn(Cc3ccccc3)c2)c2nn[nH]c2n1 (stereo not shown) [Example 17, 7-[1-(1-Benzyl-1H-pyrazol-4-yl)-3-[(2,3-dihydro-1H-inden-1-yl)amino]propyl]-3H-[1,2,3]triazolo[4,5-b]pyridin-5-amine] | 101 to 999 | 1 to 100
8 | Nc1cc(C(CCN[C@H]2CC[C@H](c3ccccc3)CC2)c2cnn(Cc3ccccc3)c2)c2nn[nH]c2n1 (stereo partly shown) [Example 18, 7-[1-(1-Benzyl-1H-pyrazol-4-yl)-3-{[(1r,4r)-4-phenylcyclohexyl]-amino}propyl]-3H-[1,2,3]triazolo 4,5-b pyridin-5-amine] | 1 to 100 | 1 to 100
9 | Nc1cc(C(CCN[C@H]2CC[C@H](c3ccccc3)CC2)c2cnn(Cc3ccc(Cl)cc3)c2)c2nn[nH]c2n1 (stereo partly drawn) [Example 19, 7-(1-{1-[(4-Chlorophenyl)methyl]-1H-pyrazol-4-yl}-3-{[trans-4-phenylcyclohexyl]amino}propyl)-3H-[1,2,3]triazolo[4,5-b]pyridin-5-amine] | 101 to 999 | 1 to 100
10 | Nc1cc(C(CCN[C@H]2CC[C@H](c3ccccc3)CC2)c2cnn(C3CCC3)c2)c2nn[nH]c2n1 (stereo partly shown) [Example 20, 7-[1-(1-Cyclobutyl-1H-pyrazol-4-yl)-3-{[(1r,4r)-4-phenylcyclohexyl]amino}propyl]-3H-[1,2,3]triazolo[4,5-b]pyridin-5-amine] | 101 to 999 | 1 to 100
11 | Nc1cc(C(CCN[C@H]2CC[C@H](c3ccccc3)CC2)c2cnn(CC3CCC3)c2)c2nn[nH]c2n1 (stereo partly shown) [Example 21, 7-{1-[1-(Cyclobutylmethyl)-1H-pyrazol-4-yl]-3-{[(1 r,4r)-4-phenylcyclohexyl]amino}propyl}-3H-[1,2,3]triazolo[4,5-b]pyridin-5-amine] | 101 to 999 | 101 to 999
12 | Nc1cc(C(CCN[C@H]2CC[C@H](c3ccccc3)CC2)c2cn[nH]c2)c2nn[nH]c2n1 (stereo partly drawn) [Example 22, 7-[1-(1H-Pyrazol-4-yl)-3-{[trans-4-phenylcyclohexyl]amino}propyl]-3H-[1,2,3]triazolo[4,5-b]pyridin-5-amine] | 1000 to 10000 | 101 to 999

The next lines start with the values.

Row | IC50 (myeloperoxidase [1]) [nM] | IC50 (myeloperoxidase [2]) [nM] | Compound
13 | 1000 to 10000 | 1 to 100 | Nc1cc(C(CCN[C@H]2CC[C@H](c3ccccc3)CC2)c2cnn(C3CCCC3)c2)c2nn[nH]c2n1 (stereo partly drawn) [Example 23, 7-[1-(1-Cyclopentyl-1H-pyrazol-4-yl)-3-{[trans-4-phenylcyclohexyl]amino}propyl]-3H-[1,2,3]triazolo[4,5-b]pyridin-5-amine]
14 | 101 to 999 | 1 to 100 | Nc1cc(C(CCN[C@H]2CC[C@H](c3ccccc3)CC2)c2cnn(Cc3cccc4ccccc34)c2)c2nn[nH]c2n1 (stereo partly drawn) [Example 24, 7-{1-[1-(Naphthalen-1-ylmethyl)-1H-pyrazol-4-yl]-3-{[trans-4-phenylcyclohexyl]amino}propyl}-3H-[1,2,3]triazolo[4,5-b]pyridin-5-amine]
15 | 101 to 999 | 1 to 100 | Nc1cc(C(CCN[C@H]2CC[C@H](c3ccccc3)CC2)c2cnn(Cc3cccc(OC(F)F)c3)c2)c2nn[nH]c2n1 (stereo partly drawn) [Example 25, 7-[1-(1-{[3-(Difluoromethoxy)phenyl]methyl}-1H-pyrazol-4-yl)-3-{[trans-4-phenylcyclohexyl]amino}propyl]-3H-[1,2,3]triazolo[4,5-b]pyridin-5-amine]
16 | 101 to 999 | 1 to 100 | Nc1cc(C(CCN[C@H]2CC[C@H](c3ccccc3)CC2)c2cnn(Cc3cc(F)cc(F)c3)c2)c2nn[nH]c2n1 (stereo partly drawn) [Example 26, 7-(1-{1-[(3,5-Difluorophenyl)methyl]-1H-pyrazol-4-yl}-3-{[trans-4-phenylcyclohexyl]amino}propyl)-3H-[1,2,3]triazolo[4,5-b]pyridin-5-amine]
17 | 101 to 999 | 1 to 100 | Nc1cc(C(CCN[C@H]2CC[C@H](c3ccccc3)CC2)c2cnn(C3CCC3(F)F)c2)c2nn[nH]c2n1 (stereo partly drawn) [Example 28, 7-{1-[1-(2,2-Difluorocyclobutyl)-1H-pyrazol-4-yl]-3-{[trans-4-phenylcyclohexyl]amino}propyl}-3H-[1,2,3]triazolo[4,5-b]pyridin-5-amine]
18 | 101 to 999 | 1 to 100 | Nc1cc(C(CCN[C@H]2CC[C@H](c3ccccc3)CC2)c2cnn(C3CC(F)C3(F)F)c2)c2nn[nH]c2n1 (stereo partly drawn) [Example 29, 7-(3-{[trans-4-phenylcyclohexyl]amino}-1-[1-(2,2,3-trifluorocyclobutyl)-1H-pyrazol-4-yl]propyl)-3H-[1,2,3]triazolo[4,5-b]pyridin-5-amine]
19 | 101 to 999 | 1 to 100 | Nc1cc(C(CCN[C@H]2CC[C@H](c3ccccc3)CC2)c2cnn(CCC(F)(F)F)c2)c2nn[nH]c2n1 (stereo partly drawn) [Example 30, 7-(3-{[trans-4-Phenylcyclohexyl]amino}-1-[1-(3,3,3-trifluoropropyl)-1H-pyrazol-4-yl]propyl)-3H-[1,2,3]triazolo[4,5-b]pyridin-5-amine]
20 | 101 to 999 | 1 to 100 | Nc1cc(C(CCN[C@H]2CC[C@H](c3ccccc3)CC2)c2cnn(Cc3cccc(C(F)(F)F)c3)c2)c2nn[nH]c2n1 (stereo partly drawn) [Example 31, 7-(3-{[trans-4-Phenylcyclohexyl]amino}-1-(1-{[3-(trifluoromethyl)phenyl]methyl}-1H-pyrazol-4-yl)propyl)-3H-[1,2,3]triazolo[4,5-b]pyridin-5-amine]
21 | 1000 to 10000 | 101 to 999 | Nc1cc(C(CCN[C@H]2CC[C@H](c3ccccc3)CC2)c2cnn(C3CC3)c2)c2nn[nH]c2n1 (stereo partly drawn) [Example 32, 7-[1-(1-Cyclopropyl-1H-pyrazol-4-yl)-3-{[trans-4-phenylcyclohexyl]amino}propyl]-3H-[1,2,3]triazolo[4,5-b]pyridin-5-amine]
22 | 1000 to 10000 | 101 to 999 | Nc1cc([C@H](CCN[C@H]2CC[C@H](c3ccccc3)CC2)c2cnn(Cc3cccc(OC(F)F)c3)c2)c2nn[nH]c2n1 [Example 33A, 7(S)-[1-(1-{[3-(Difluoromethoxy)phenyl]methyl}-1H-pyrazol-4-yl)-3-{[trans-4-phenylcyclohexyl]amino}propyl]-3H-[1,2,3]triazolo[4,5-b]pyridin-5-amine]
23 | 1 to 100 | 1 to 100 | Nc1cc([C@@H](CCN[C@H]2CC[C@H](c3ccccc3)CC2)c2cnn(Cc3cccc(OC(F)F)c3)c2)c2nn[nH]c2n1 [Example 33B, 7(R)-[1-(1-{[3-(Difluoromethoxy)phenyl]methyl}-1H-pyrazol-4-yl)-3-{[trans-4-phenylcyclohexyl]amino}propyl]-3H-[1,2,3]triazolo[4,5-b]pyridin-5-amine]
